PMC11067372, “Evaluation of the antiplasmodial efficacy of synthetic 2,5-diphenyloxazole analogs of compounds naturally derived from Oxytropis lanata” (International Journal for Parasitology: Drugs and Drug …, 2024)
Where two headings read alike, the source gives them in different places.

How the values were obtained:
P. falciparum 3D7 [1] = assay: IC50 speed assay (24, 48, 72 h); assay type: cell-based, Plasmodium falciparum; settings: for Speed of action (IC50 speed assay): IC50 at 24, 48, 72 h compared; for IC50: Plasmodium falciparum
Method: (§1) The D-sorbitol method (CAS: 50-70-4, Wako, Osaka, Japan) was employed to synchronize parasites, resulting in the attainment of ≥90% ring-stage parasites. These synchronized parasites were then utilized for the experiments within a 2-h window. The assay was performed as follows. First, 50 μL of synchronized parasites with 0.5% parasitemia and 2% hematocrit were added to individual wells of a 96-well plate. Then, 50 μL of the test compounds was introduced to each well. […] Wells containing only test compounds and erythrocytes were included for background correction. […] After the designated incubation time, 100 μL of lysis buffer containing 0.02% (v/v) SYBR Green I was added to each well, the contents of the well were mixed by pipetting, and the plate was incubated in the dark at room temperature for 2 h. […] This assay was repeated four times at each concentration, and the resulting inhibitory values represent the average from three independent trials.

P. falciparum K1 = assay: In vitro inhibition of P. falciparum K1 (SYBR Green I-based fluorescence assay); assay type: cell-based; settings: Plasmodium falciparum, read-out: IC50 P. falciparum K1
Method: (§2) The cultures were maintained in an incubator under specific conditions: 37 °C under 5% CO2 and 5% O2.
as §1
(§3) The IC50 or CC50 values were determined from three independent experiments by plotting the logarithmic concentration of the compound against the percent parasite inhibition or cell growth inhibition, respectively. Nonlinear regression analysis was conducted using GraphPad Prism 10 (GraphPad Software, Inc., La Jolla, CA, USA). Comparisons between groups were evaluated using either one-way or two-way ANOVA followed by Tukey's or Fisher's multiple comparisons tests. […] The meaning of each symbol is specified in the corresponding figure legend alongside the name of the employed test.

[2] = In vitro toxicity to human cells (cell viability assay); assay type: cell-based; settings: human foreskin fibroblasts (HFFs), average ± SD, three independent experiments
Method: HFF cells are selected for cytotoxicity testing in this study, providing a physiologically relevant model for the evaluation of drug interactions with human cells. […] This designation makes them a suitable model for the investigation of cellular processes and their sensitivity to toxic substances, which is crucial for the early identification of potential adverse effects of drugs during the development process.
The IC50 or CC50 values were determined from three independent experiments by plotting the logarithmic concentration of the compound against the percent parasite inhibition or cell growth inhibition, respectively. Nonlinear regression analysis was conducted using GraphPad Prism 10 (GraphPad Software, Inc., La Jolla, CA, USA). Comparisons between groups were evaluated using either one-way or two-way ANOVA followed by Tukey's or Fisher's multiple comparisons tests. A p-value of <0.05 was considered to indicate statistical significance and is denoted by an asterisk or a symbol. The meaning of each symbol is specified in the corresponding figure legend alongside the name of the employed test.

P. falciparum 3D7 [3] = assay: Stage-specific assay on ring and schizont stages (SYBR Green I, 24 h); assay type: cell-based, Plasmodium falciparum; settings: eight concentrations from 100-fold IC50
Method: (§4) To ensure uniformity, the parasites underwent a rigorous synchronization process using a two-step sorbitol treatment procedure. This synchronized parasite population was harnessed within a 2-h window for the ring stage, 8–10 h for the trophozoite stage, and 24–26 h for the schizont stage. Subsequent to sorbitol treatment, early trophozoites could be obtained within 6–8 h after the initial sorbitol treatment (within 20 h of development), while early schizonts could be obtained after an additional 16 h of incubation (within 36 h of development). Beyond 36 h, the schizonts mature, causing the rupture of red blood cells (RBCs) and the consequent release of merozoites, which promptly infect new RBCs.
Wells containing only the test compounds and erythrocytes were included to correct for background activity. The 96-well plates were incubated for 24 h at 37 °C in an atmosphere of 5% CO2 and 5% O2. The growth of P. falciparum 3D7 was detected using a SYBR Green I-based fluorescence assay.

P. falciparum 3D7 [4] = assay: Stage-specific microscopy examination (ring, trophozoite, schizont); assay type: cell-based, Plasmodium falciparum; settings: ring, trophozoite, schizont stages, artemisinin and chloroquine at all concentrations, Compounds 31 and 32 at 100 times IC50
Method: as §4
The negative control group consisted of cultures treated solely with complete medium and was designated the no treatment (NT) group. This analysis was repeated three times at each concentration. Following a 24-h incubation period, the culture in a 96-well plate was centrifuged at 1300 g for 5 min to settle down the iRBC; then, the supernatants were removed, and the iRBCs were washed with fresh media at the same volume as the initial culture. The centrifugation and washing were repeated 3 times, allowing the compound to be diluted by approximately 1000 times. Subsequently, thin blood smears from each treatment group were prepared using 1 μL of settled iRBCs. The proportion of parasites affected by the drug, including those with both abnormal and retained morphologies, was calculated by examining 100 parasites and counting the number displaying irregular development. Subsequently, the number of abnormal parasites was divided by the total count and then multiplied by 100 to obtain a percentage. The parameters used to define normal and abnormal morphologies can be found in Table S3 and Fig. S1.

P. falciparum 3D7 [5] = assay: In vitro inhibition of P. falciparum 3D7 (SYBR Green I-based fluorescence assay); assay type: cell-based, Plasmodium falciparum; settings: Plasmodium falciparum, 3D7, 72 h, read-out: IC50 P. falciparum 3D7
Method: as §2, §1, §3

P. yoelii 17XNL = assay type: in vivo; settings: P. yoelii 17XNL-infected mice; 20 mg/kg/day
Method: Male C57BL/6 mice, aged eight weeks, were obtained from Japan CLEA (Tokyo, Japan) and housed with six per cage in each group. These mice were kept under conditions of 24 °C, 50% relative humidity, and a light-dark cycle of 8 a.m. to 8 p.m. Access to drinking water and food (CLEA Rodent Diet CE-2; Japan CLEA, Tokyo, Japan) was unrestricted. Prior to experimentation, P. yoelii 17XNL was recovered from cryopreserved erythrocyte stocks via passage in mice. […]. Parasitemia levels were evaluated […] by collecting 2 μL of blood from the mouse tail for thin blood smear preparation. Treatment was initiated upon reaching a parasitemia level of 1%. […]. Parasitemia in infected mice was observed daily by preparing Giemsa-stained thin blood smears (up to 30 dpi). Hematocrit levels were measured every other day using a Celltac-α MEK-6550 (Nihon Kohden, Tokyo, Japan), with 10 μL of blood collected from the mouse tail for each assessment. The animals were handled and treated in accordance with the Guide for the Care and Use of Laboratory Animals by the Ministry of Education, Culture, Sports, Science, and Technology, Japan. Ethical permission for the animal experiment protocols was secured under permit numbers 21–35 and 23–90 from the ethical committee of Obihiro University of Agriculture and Veterinary Medicine.
The median point within this range was selected to maintain a balance between efficacy and safety. Furthermore, a modified Peter's suppression test was utilized to assess the efficacy of antimalarial drugs ([Ager, 1984]; [Peters et al., 1975]). The treatment and observation period were initially set for 4 days. […] […]. […] These findings highlight the effect of the 20 mg/kg/day dosage of Compounds 31 and 32 in reducing parasitemia without causing side effects.

Row | IC50 (P. falciparum 3D7 [1]; P. falciparum 3D7, 24 h incubation, read-out: IC50 24 h) [µM] | IC50 (P. falciparum 3D7 [1]; P. falciparum 3D7, 48 h incubation, read-out: IC50 48 h) [µM] | IC50 (P. falciparum K1; multidrug-resistant strain K1, 72 h incubation, average ± SD, three independent experiments) [µM] | Compound | Speed of action (IC50 speed assay) (P. falciparum 3D7 [1]; P. falciparum 3D7) | CC50 [2] [µM] | Stage specificity (ring and schizont stages) (P. falciparum 3D7 [3]) | Parasite morphology after 24 h treatment (P. falciparum 3D7 [4]) | IC50 (P. falciparum 3D7 [1]; 3D7, 24 h, read-out: IC50 24 h) [µM] | IC50 (P. falciparum 3D7 [1]; 3D7, 48 h, read-out: IC50 48 h) [µM] | IC50 (P. falciparum 3D7 [1]; 3D7, 72 h, read-out: IC50 72 h) [µM] | IC50 (P. falciparum K1; K1, 72 h) [µM] | IC50 (P. falciparum 3D7 [5]) [µM] | Treatment duration required to decrease the parasitemia levels from the peak of infection (P. yoelii 17XNL) [days]
1 | 0.037 ± 0.005 | 0.023 ± 0.002 | 0.019 ± 0.002 | C[C@@H]1CC[C@H]2[C@@H](C)C(=O)O[C@@H]3O[C@@]4(C)CC[C@@H]1[C@]32OO4 [Artemisinin, artemisinin, reference compound] | fast-acting | 153 ± 30.8 | potency against ring and schizont stages | death and shrinkage of the parasite at all stages | – | – | – | – | – | –
2 | – | – | – | CCN(CC)CCCC(C)Nc1ccnc2cc(Cl)ccc12 (stereo not shown) [Chloroquine (diphosphate), chloroquine diphosphate, reference compound] | fast-acting | – | potency against ring and schizont stages | death and shrinkage of the parasite at all stages | 0.046 ± 0.003 | 0.022 ± 0.004 | 0.026 ± 0.004 | 0.784 ± 0.073 | 0.026 ± 0.003 | 7
